From patent US20110257139A1, “TREATMENT OF DIARRHOEA” (ROYAL COLLEGE OF SURGEONS IN IRELAND, priority 2008, published 2011)

Key:
T84 cells [1] = test: Cl^− secretory (Isc) responses of T84 cell monolayers in Ussing chambers; format: cell-based; conditions: for Isc (Cl^− secretory) response to carbachol (CCh) / Isc (Cl^− secretory) response to forskolin: T84 monolayers pretreated with 1 μM for 24 hrs; for Isc (Cl^− secretory) response to carbachol (CCh): carbachol 100 μM; for Isc (Cl^− secretory) response to forskolin: forskolin 10 μM
Method: Measurements of chloride secretion: Cultured T84 epithelial cells were employed as a model of the colonic epithelium. T84 cells were grown as monolayers on filter supports. When grown in this way T84 cells retain many of the characteristics of native intestinal epithelium and are widely considered as being among the best reductionist models for analysing intestinal epithelial secretory responses. […] After this time they were washed of GW 4064, mounted in Ussing chambers, and voltage-clamped to zero potential difference. Under these conditions, transepithelial ion transport can be measured as changes in short-circuit current (Isc) and such changes in Isc across T84 cells have been established as being wholly due to Cl^− ion secretion. After mounting the cells in Ussing chambers we measured Cl^− secretory responses to both the calcium- and cAMP-dependent agonists, carbachol (100 μM) and forskolin (10 μM), respectively.

K^+ channel conductances = test: Basolateral K^+ conductance in T84 monolayers (Ussing chambers); format: cell-based; conditions: 5 μM, 24 hrs
Method: To measure basolateral K^+ conductance T84 cell monolayers in Ussing chambers were apically permeabilized with amphotericin B (50 μmol/L). A K^+ gradient (123.2-5.2 mmol/L) was created across the basolateral membrane by addition of a high K^+ (123.2 mmol/L) Ringers solution, in which NaCl is substituted with K^+-gluconate, to the apical reservoir. Ouabain (100 μmol/L) was added basolaterally to inhibit Na^+/K^+-ATPase pump activity. Under these conditions changes in Isc are wholly reflective of changes in basolateral K^+ conductance (IK^+).

mouse colon = test: Ex vivo Isc measurements in muscle-stripped colon after intraperitoneal dosing of mice; conditions: 100 mg/kg intraperitoneally, 24 hrs
Method: Animal Studies: Male C57BL6 mice were bred and maintained in an environmentally controlled animal facility at Beaumont Hospital. Experiments were performed on 6-9 week old animals and were in compliance with Irish Department of Health and Children regulations and approved by the Beaumont Hospital Ethics Committee. […] The distal colon was removed, stripped of underlying smooth muscle, and mounted in Ussing chambers (window area=0.3 cm^2). Results were normalized and expressed as ΔIsc (μA/cm^2).
Administration of a potent and selective FXR agonist inhibits Cl^− secretory responses in mouse colon. FIG. 10.

Na^+/K^+ ATPase pump = test: Abundance (western blotting) and surface expression (biotinylation) of Na^+/K^+ ATPase pump in T84 cells; format: cell-based; conditions: 5 μM, 24 hrs
Method: Western Blotting: T84 monolayers were washed with ice-cold PBS and lysed (1% Nonidet P-40, 150 mmol/L NaCl, 50 mmol/L Tris Base, 1×Complete mini EDTA free protease inhibitor tablet, 0.1 mg/l mL PMSF, 1 mmol/L Na3VO4). Lysates were collected, centrifuged at 15,294×g for 10 minutes at 4° C., the pellet discarded, and the supernatant sonicated with 3×10 second pulses in order to disrupt membrane proteins. Samples were normalized for protein content and 2× gel loading buffer (50 mM Tris HCl, 100 mM DTT, 40% glycerol and 4% SDS) was added. Samples were then heated at 95° C. for 5 min, separated by sodium dodecyl sulphate polyacrylamide gel electrophoresis and transferred to PVDF membranes. Membranes were pre-blocked in 5% blocking buffer (Marvel in PBS) for 60 minutes at room temperature followed by incubation with primary antibody in 5% blocking buffer overnight at 4° C. […] After further washing (×4) in TBST, immunoreactive proteins were detected by enhanced chemiluminescence (Amersham Biosciences, UK).
Cell Surface Biotinylation: Following treatment T84 cell monolayers were washed ×3 in ice-cold PBS and freshly prepared biotinylation buffer (1 mg/mL sulfo-NHS-biotin (Pierce) in PBS) was added basolaterally. […] Na^+/K^+-ATPase □ subunit was detected by western blot analysis as described above.

T84 cells [2] = test: Transepithelial conductance of T84 monolayers as a measure of cell viability; format: cell-based; conditions: various concentrations for 24 hrs
Method: Monolayers were then mounted in Ussing chambers and transepithelial conductance measurements were made as a measure of cell viability (n=4-13). Only at concentrations>10 μM did GW 4064 exert toxic effects on T84 cells. FIG. 5.

T84 cells [3] = test: Cellular ATP levels in T84 cells (ENLITEN ATP Assay); format: cell-based; conditions: 5 μM, 24 hrs
Method: Cells were then lysed with hypotonic lysis buffer (2 mM EDTA, 100 mM Trizma base, brought to pH 7.75 with acetic acid) and frozen at −80° C. The lysate was later assayed for ATP content using the ENLITEN® ATP Assay System (Promega, Madison, Wis.).

## GW4064
T84 cells [1]; GW4064 5 μM, 24 hrs
  CCh-induced Cl^− secretory responses: inhibited
T84 cells [1]
  Isc (Cl^− secretory) response to carbachol (CCh): significantly attenuates
  Isc (Cl^− secretory) response to forskolin: significantly attenuates
T84 cells [1]; listed as GW 4064
  Isc (Cl^− secretory) response to carbachol (CCh): significantly reduce
  Isc (Cl^− secretory) response to forskolin: significantly reduce
T84 cells [1]; pretreated 5 μM for various periods of time, CCh 100 μM
  Time-dependence of attenuation of Cl^− secretory responses to CCh: attenuates Cl^− secretion in a time-dependent fashion
T84 cells [1]; pretreated 0.1-10 μM for 24 hrs
  Concentration-dependence of antisecretory actions (Cl^− secretory responses to CCh and forskolin): concentration-dependent
K^+ channel conductances
  K^+ channel conductances: did not significantly alter
Mouse colon
  Ex vivo Isc response of colon to CCh: significantly attenuated
  Ex vivo Isc response of colon to forskolin: significantly attenuated
Na^+/K^+ ATPase pump
  Cellular abundance of the catalytic α subunit of Na^+/K^+ ATPase (western blotting): does not alter
  Surface expression of Na^+/K^+ ATPase pump (biotinylation): does not alter
T84 cells [2]
  Concentration exerting toxic effects on T84 cells (transepithelial conductance): > 10 µM
T84 cells [3]
  Cellular ATP levels: does not alter
